In article PMC5855875, “Teixobactin analogues reveal enduracididine to be non-essential for highly potent antibacterial activity and lipid II binding” (Chemical Science, 2017):
Values after ≈ are worked out from the molar mass of the structure shown. Bridge positions count the residues as written; N and C are the ends. Square brackets hold non-standard residues; d marks the D form. Peptide text beside a SMILES is read from it. d(aIle) = CC[C@H](C)[C@@H](N)C(=O)O; dNMeF = CN[C@H](Cc1ccccc1)C(=O)O

How the values were obtained:
[1] = tested on: rabbit erythrocytes; format: cell-based; conditions: rabbit erythrocytes 4% v/v; peptides 0.195 – 250 µg/ml; 37°C, 1 h; haemoglobin release spectrophotometrically; average of triplicate experiments
Protocol: Fig. 5 Hemolytic activity of teixobactin analogues 12 and 13 for rabbit erythrocytes. The blood cells were exposed to various concentrations of peptides for 1 h and the release of haemoglobin was determined spectrophotometrically. Each value represents an average of triplicate experiments.
Cytotoxicity assay by Formazan bioreduction
Medium (DMEM) supplemented with 10% serum. The cells were repeatedly rinsed with Hank’s
in HBSS 24 hrs post-seeding.
were incubated for 3 hrs at 37°C.
XII. Haemolytic Assay Protocol
Hemolytic assay was performed

[2] = tested on: MRSA ATCC 33591; test: microbe, parasite or virus in culture
Protocol: (§1) were grown in Mueller Hinton broth (Oxoid) in triplicate. All incubations were at 37°C. Dilutions were carried out in triplicate. 100 µl of autoclaved Mueller Hinton broth was added to wells 2-12 in a 96-well plate. 200 µl of the peptide was added to well one at a concentration of 256 µg/mL. 100µl of peptide in well one was taken up and pipetted into well two. The mixture was then mixed via pipetting before 100µl was taken up and pipetted into well three. This process was repeated up to well 11. Once […]
(§2) peptide present. Thus, the concentrations (in µg/mL) were: 256, 128, 64, 32, 16, 8, 4, 2, 1, 0.5, 0.25 and no peptide present. Each well was then inoculated with 100µl of bacteria that had been diluted to an […]
(§3) This was repeated three times. The 96-well plates were then incubated at 37°C for 24 hours. The MIC was determined to be the lowest concentration at which there was no growth visible. […]
(§4) was repeated at an altered initial concentration of 64 µg/ml. Therefore, the new concentrations for MIC […]
(§5) VIII. MIC testing (extended panel)
(§6) Bacterial cultures were grown overnight i n Mueller-Hinton Agar (MHA) plates and adjusted to a final concentration of 10 5 – 106 CFU/ml. 100 µl of inoculum in Meuller -Hinton broth (MHB) was mixed with equal volume of peptides (dissolved in MHB) at 2x their concentration in a 96 well plate. In parallel experiments, MIC values were determined in the media containing polysorbate 80 (0 .002%, v/v) to […]

[3] = tested on: MRSA 1: MRSA ATCC 700699; test: microbe, parasite or virus in culture; conditions: for MBC: plated on MHA; for MBC / MIC (with polysorbate 80): 24 h; for MIC (with polysorbate 80): MRSA 1, MHB containing polysorbate 80 (0.002%, v/v), two independent duplicates
Protocol: as §5, §6
(§7) prevent non-specific adsorption of the peptides to plastic surfaces. The final peptides concentrations […]
(§8) Positive and negative controls contained 200 µl of inoculum without any peptide dissolved in broth, respectively. The 96 well plates were then incubated at 37 °C for 24 h.
(§9) All the experiments were performed in two independent duplicates and the MIC was determined as the […]
(§10) Minimum bactericidal concentration
(§11) The lowest concentration in which no visible colonies could be detected was taken as the MBC.
(§12) 80. Strain information: MRSA 1: MRSA ATCC 700699, MRSA 2: MRSA DR 42412 (sputum), MRSA
(§13) 3: MRSA DM21455 (eye). […] Staphylococcus aureus ATCC

[4] = tested on: MRSA 3: MRSA DM21455 (eye); test: microbe, parasite or virus in culture; conditions: for MIC (with polysorbate 80): MRSA 3, MHB containing polysorbate 80 (0.002%, v/v)
Protocol: as §5, §6, §7, §8, §9, §10, §11, §12, §13

[5] = tested on: Staphylococcus aureus ATCC 29213; test: microbe, parasite or virus in culture; conditions: for MIC (without polysorbate 80): ATCC 29213, 24 h; for MIC (with polysorbate 80): S. aureus ATCC 29213, MHB containing polysorbate 80 (0.002%, v/v); for MIC (with polysorbate 80) / MBC: 37 °C, 24 h; for MBC: Staphylococcus aureus ATCC 29213, plated on MHA
Protocol: as §5, §6, §7, §8, §9, §10, §11, §12, §13

[6] = tested on: MRSA 2: MRSA DR 42412 (sputum); test: microbe, parasite or virus in culture; conditions: for MIC (with polysorbate 80): MRSA 2, MHB containing polysorbate 80 (0.002%, v/v)
Protocol: as §5, §6, §7
(§14) Positive and negative controls contained 200 µl of inoculum without any peptide dissolved in broth, respectively. The 96 well plates were then incubated at 37 °C for 24 h. […]
as §12, §13

[7] = tested on: VRE 1: VRE ATCC 700802; test: organism not typed; conditions: for MIC (with polysorbate 80): VRE 1, MHB containing polysorbate 80 (0.002%, v/v), 37 °C, 24 h
Protocol: as §5, §6, §7, §14, §12, §13

[8] = tested on: VRE 2: VRE ATCC 29212; test: organism not typed; conditions: for MIC (with polysorbate 80): VRE 2, MHB containing polysorbate 80 (0.002%, v/v), 37 °C, 24 h
Protocol: as §5, §6, §7, §14, §12, §13

[9] = tested on: M. smegmatis ATCC 607; test: microbe, parasite or virus in culture
Protocol: as §1, §2, §3, §4
Middlebrook 7H9 broth (SIGMA) supplemented to 5% Middlebrook ADC (SIGMA) growth

[10] = Lipid II TLC binding assay; conditions: peptide : lipid II 2 : 1; 50 mM Tris/HCl, pH 7.5, 30 min, room temperature; three independent experiments
Protocol: X. Complex formation of teixobactin with lipid II and geranyl pyrophosphate Complex formation of teixobactin analogues 8 (Ala10-teixobactin) and 16 (Arg10-teixobactin) with lipid II and geranyl pyrophosphate was performed using TLC as described previously.7 Binding of teixobactin to lipid II and geranyl pyrophosphate was analysed by incubating 30 µL of 2 nmol of each precursor with 2 or 4 nmoles of teixobactin in 50 mM Tris/HCl, pH 7.5, for 30 min at room temperature. Complex formation was analysed by extracting unbound precursors from the reaction mixture with 30 µL n- butanol/6M pyridine acetate (pH 4.2) (2:1; vol/vol) followed by TLC analysis of the organic layer using chloroform/methanol/water/ammonia (88:48:10:1, v/v/v/v) as the solvent and detection of lipid/phosphate containing precursors by phosphomolybdic acid staining. The TLC figures represent the results obtained through thr ee independent experiments.
Figure S76 : Binding of teixobactin analogues 8 (Ala10-teixobactin ) and 16 (Arg10-teixobactin) with lipid II using the protocols described in literature .7 Partial binding is observed when the ratio of lipid II to the analogue is 1:1 (indicated by lighter spots on the TLC) and complete binding is observed when the ratio of lipid II to the analogue is 1:2 in case of analogue 16 and 1:4 in case of analogue 8 (indicated […]
(§15) (also on this page, place not known: polyso rbate vancomycin , concentr ation 80 . wer e µ l (10 1-105 10 10 previously n - TL C three S76: (Ala10-teixobactin) literature.7 Lipid II Lipid II: Compound 8 = 1:1 Lipid II: Compound 16 = 1:1 Lipid II: Compound 8 = 1:2 Lipid II: Compound 16 = 1:2 Lipid II: Compound 8 = 1:4)

[11] = tested on: MRSA DM21455; test: Time-kill kinetics; format: cell-based, Methicillin-resistant Staphylococcus aureus; conditions: 0.5 μg mL^–1; MHB containing 0.002% v/v polysorbate 80; 37 °C; average of two independent experiments
Protocol: IX. Time-dependent killing of bacteria by teixobactin analogues 12 and 13 Time-kill kinetics against MRSA DM21455 strains (clinical isolates from patients) was carried out in MHB. Cultures were grown overnight in MHA plates and adjusted to a final inoculum of 10^5 – 10^6 CFU/ml in MHB (containing 0.002% v/v, polysorbate 80) with teixobactin analogues 12 and 13 maintained at a final concentration of 0.5 µg/ml. For vancomycin, the concentration was varied from 0.5 – 16 µg/ml without polysorbate 80. The tubes were then incubated at 37 °C. 100 µl of cell suspension was withdrawn at various time points (0, 2, 4, 8, 24 h), serially diluted (101-105 fold dilutions) and plated onto a MHA plates and incubated for 24 h at 37 °C.
Colonies were then enumerated […]. Colony counting too numerous to count (>300 colonies) was taken as 1010 CFU. Average values from two independent experiments are reported. […]
as §15

[12] = MRSA 1 (MRSA ATCC 700699), 37 °C

Compound | MIC (without polysorbate 80) ([3]; ATCC 700699, 24 h) [µg/mL] | MBC [3, 12] [μg mL^–1] | MIC (with polysorbate 80) ([3]; 37 °C) [µg/mL] | MIC (without polysorbate 80) ([4]; 3: DM21455 (eye, 24 h)) [µg/mL] | MIC (with polysorbate 80) ([4]; 37 °C, 24 h) [µg/mL] | MIC (without polysorbate 80) [5] [µg/mL] | MIC (with polysorbate 80) [5] [µg/mL] | MBC [5] [μg mL^–1] | MIC (without polysorbate 80) ([6]; 2: DR 42412 (sputum, 24 h)) [µg/mL] | MIC (with polysorbate 80) ([6]; 37 °C, 24 h) [µg/mL] | MIC (without polysorbate 80) ([7]; ATCC 700802, 24 h) [µg/mL] | MIC (with polysorbate 80) [7] [µg/mL] | MIC (without polysorbate 80) ([8]; ATCC 29212, 24 h) [µg/mL] | MIC (with polysorbate 80) [8] [µg/mL] | lipid II spot on TLC [10] | also measured
melittin |  |  |  |  |  |  |  |  |  |  |  |  |  |  |  | haemolytic activity [1]: substantial haemolytic activity
CC[C@H](C)[C@H](NC(=O)[C@@H](Cc1ccccc1)NC)C(=O)N[C@@H](CO)C(=O)N[C@H](CCC(N)=O)C(=O)N[C@@H](C(=O)N[C@H](C(=O)N[C@@H](CO)C(=O)N[C@H]1C(=O)N[C@@H](C)C(=O)N[C@@H](CCCNC(=N)N)C(=O)N[C@@H]([C@@H](C)CC)C(=O)O[C@H]1C)[C@@H](C)CC)[C@@H](C)CC [Compound 16, Arg10-teixobactin] | 4 (≈ 3.21 µM) | 2 | 1 (≈ 0.804 µM) | 4 (≈ 3.21 µM) | 0.5 (≈ 0.402 µM) | 2 (≈ 1.61 µM) | 0.25 (≈ 0.201 µM) | 1 | 2 (≈ 1.61 µM) | 0.125 (≈ 0.1 µM) | 4 (≈ 3.21 µM) | 2 (≈ 1.61 µM) | 4 (≈ 3.21 µM) | 2 (≈ 1.61 µM) | complete disappearance of the lipid II spot | MIC ([2]; MRSA ATCC 33591, Mueller Hinton broth (Oxoid), peptides in DMSO containing 0.002% polysorbate 80, 37°C, 24 h, triplicate): 2 μg mL^–1; MIC ([3]; MRSA 1 (MRSA ATCC 700699), Mueller Hinton broth, 37 °C, 24 h (Table 2)): 1 μg mL^–1; MBC ([4]; MRSA 3 (MRSA DM21455), plated on MHA, 37 °C, 24 h): 1 μg mL^–1; MIC ([4]; MRSA 3 (MRSA DM21455, eye, clinical isolate), Mueller Hinton broth, 37 °C, 24 h (Table 2)): 0.5 μg mL^–1; MBC ([6]; MRSA 2 (MRSA DR 42412), plated on MHA, 37 °C, 24 h): 0.5 μg mL^–1; MIC ([6]; MRSA 2 (MRSA DR 42412, sputum, clinical isolate), Mueller Hinton broth, 37 °C, 24 h (Table 2)): 0.125 μg mL^–1; MIC ([7]; VRE 1 (Enterococcus faecalis VRE ATCC 700802), Mueller Hinton broth (Table 2)): 2 μg mL^–1; MIC ([8]; VRE 2 (Enterococcus faecalis VRE ATCC 29212), Mueller Hinton broth (Table 2)): 2 μg mL^–1; MIC ([9]; M. smegmatis ATCC 607, Middlebrook 7H9 broth with 5% ADC, 37°C, 140RPM, reading after 72 hours): 1–2 μg mL^–1
CC[C@H](C)[C@H](NC(=O)[C@@H](Cc1ccccc1)NC)C(=O)N[C@@H](CO)C(=O)N[C@H](CCC(N)=O)C(=O)N[C@@H](C(=O)N[C@H](C(=O)N[C@@H](CO)C(=O)N[C@H]1C(=O)N[C@@H](C)C(=O)N[C@@H](CC(C)C)C(=O)N[C@@H]([C@@H](C)CC)C(=O)O[C@H]1C)[C@@H](C)CC)[C@@H](C)CC [Compound 13, Leu10-teixobactin] (H-[dNMeF]IS[dQ][d(aIle)]IS[dT]ALI; ester 8-C) | 2 (≈ 1.66 µM) | 2 | 0.25 (≈ 0.208 µM) | 2 (≈ 1.66 µM) | ≤ 0.0625 | 1 (≈ 0.832 µM) | ≤ 0.0625 | 0.125 | 2 (≈ 1.66 µM) | ≤ 0.0625 | 2 (≈ 1.66 µM) | 0.25 (≈ 0.208 µM) | 2 (≈ 1.66 µM) | 0.25 (≈ 0.208 µM) | complete disappearance of the lipid II spot | MIC ([2]; ATCC 33591, 24 h): 0.25 μg mL^–1; MIC ([3]; ATCC 700699, 24 h): 0.25 μg mL^–1; MIC ([4]; 3: DM21455 (eye, 24 h)): ≤0.0625 μg mL^–1; MIC ([6]; 2: DR 42412 (sputum, 24 h)): ≤0.0625 μg mL^–1; MIC ([7]; ATCC 700802, 24 h): 0.25 μg mL^–1; MIC ([8]; ATCC 29212, 24 h): 0.25 μg mL^–1; MIC ([9]; ATCC 607, 72 h): ~1 μg mL^–1; time to complete bactericidal activity [11]: ≤ 8 h
